According to ChEMBL document CHEMBL5233249, “Recent advancements in the development of heterocyclic anti-inflammatory agents” (Eur J Med Chem, 2020):

Columns and labels:
Mus musculus [1] = experiment: Anti-inflammatory activity in Swiss albino mouse of Carrageenan-induced paw edema assessed as reduction in inflammation at 100 mg/kg measured after 1 hr relative to control; assay type: functional; parameters: scale not given: the % may be the effect or the level left
Mus musculus [2] = experiment: Anti-inflammatory activity in Swiss albino mouse of Carrageenan-induced paw edema assessed as reduction in paw edema at 100 mg/kg measured after 1 hr (reference value: 142.5 +/- 5.6 uL); assay type: functional
Mus musculus [3] = experiment: Anti-inflammatory activity in Swiss albino mouse of Carrageenan-induced paw edema assessed as reduction in inflammation at 100 mg/kg measured after 2 hr relative to control; assay type: functional; parameters: scale not given: the % may be the effect or the level left
Mus musculus [4] = experiment: Anti-inflammatory activity in Swiss albino mouse of Carrageenan-induced paw edema assessed as reduction in paw edema at 100 mg/kg measured after 2 hr (reference value: 140 +/- 6.3 uL); assay type: functional
Mus musculus [5] = experiment: Anti-inflammatory activity in Swiss albino mouse of Carrageenan-induced paw edema assessed as reduction in inflammation at 100 mg/kg measured after 3 hr relative to control; assay type: functional; parameters: scale not given: the % may be the effect or the level left
Mus musculus [6] = experiment: Anti-inflammatory activity in Swiss albino mouse of Carrageenan-induced paw edema assessed as reduction in paw edema at 100 mg/kg measured after 3 hr (reference value: 130 +/- 3.8 uL); assay type: functional
Mus musculus [7] = experiment: Anti-inflammatory activity in Swiss albino mouse of Carrageenan-induced paw edema assessed as reduction in inflammation at 100 mg/kg measured after 4 hr relative to control; assay type: functional; parameters: scale not given: the % may be the effect or the level left
Mus musculus [8] = experiment: Anti-inflammatory activity in Swiss albino mouse of Carrageenan-induced paw edema assessed as reduction in paw edema at 100 mg/kg measured after 4 hr (reference value: 126.7 +/- 6.9 uL); assay type: functional
Mus musculus [9] = experiment: Anti-inflammatory activity in Swiss albino mouse of Carrageenan-induced pleurisy assessed as reduction in total leukocytes at 50 mg/kg, po relative to control; assay type: functional; parameters: scale not given: the % may be the effect or the level left
Mus musculus [10] = experiment: Anti-inflammatory activity in Swiss albino mouse of Carrageenan-induced pleurisy assessed as reduction in migration of leukocytes at 100 mg/kg, po relative to control; assay type: functional; parameters: scale not given: the % may be the effect or the level left
Mus musculus [11] = experiment: Anti-inflammatory activity in Swiss albino mouse of Carrageenan-induced pleurisy assessed as reduction in migration of leukocytes at 100 mg/kg, po (reference value: 5.2 +/- 0.34); assay type: functional
Mus musculus [12] = experiment: Anti-inflammatory activity in Swiss albino mouse of Carrageenan-induced pleurisy assessed as reduction in TNFalpha levels at 100 mg/kg, po; assay type: functional
[13] = Anti-inflammatory activity assessed as protein denaturation using bovine serum albumin at 100 uM relative to control; assay type: functional
[14] = Anti-inflammatory activity assessed as protein denaturation using bovine serum albumin at 250 uM relative to control; assay type: functional
[15] = Anti-inflammatory activity assessed as protein denaturation using bovine serum albumin at 500 uM relative to control; assay type: functional
[16] = Anti-inflammatory activity assessed as protein denaturation using egg albumin at 100 uM relative to control; assay type: functional
[17] = Anti-inflammatory activity assessed as protein denaturation using egg albumin at 250 uM relative to control; assay type: functional
[18] = Anti-inflammatory activity assessed as protein denaturation using egg albumin at 500 uM relative to control; assay type: functional
RAW264.7 [19] = experiment: Anti-inflammatory activity in mouse RAW264.7 cells assessed as inhibition of LPS-induced reduction in cytokine levels relative to control; assay type: functional; parameters: scale not given: the % may be the effect or the level left
[20] = Anti-inflammatory activity assessed as protein denaturation using bovine serum albumin relative to control; assay type: functional
[21] = Antioxidant activity assessed as DPPH radical scavenging activity incubated for 20 mins relative to control; assay type: functional
[22] = Inhibition of MAPK p38 (unknown origin); parameters: species or system Homo sapiens
Rattus norvegicus [23] = experiment: Anti-inflammatory activity in Carrageenan-induced rat paw edema in Wistar rat assessed as reduction in inhibition of edema measured after 4 hrs relative to control; assay type: functional; parameters: scale not given: the % may be the effect or the level left
[24] = target: Tumor necrosis factor (Homo sapiens) (UniProt P01375); experiment: Inhibition of TNF-alpha (unknown origin) relative to control; conditions: concentration not given here
Tumor necrosis factor (Homo sapiens), sequence (P01375 whole entry, looked up): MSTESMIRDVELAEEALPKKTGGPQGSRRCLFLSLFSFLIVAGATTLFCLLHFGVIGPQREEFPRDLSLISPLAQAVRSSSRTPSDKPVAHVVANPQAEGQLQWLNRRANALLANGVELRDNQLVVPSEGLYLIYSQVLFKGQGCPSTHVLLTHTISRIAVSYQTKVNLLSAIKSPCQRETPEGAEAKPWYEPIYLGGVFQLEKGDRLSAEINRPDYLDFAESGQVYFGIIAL

Rattus norvegicus [25] = experiment: Anti-inflammatory activity against formalin-induced foot paw edema in PO dosed rat at 10 mg/kg assessed as inhibition of edema measured after 4 hr relative to control; assay type: functional
Rattus norvegicus [26] = experiment: Anti-inflammatory activity against Carrageenan-induced paw edema in PO dosed Wistar albino rat assessed as fold increase in inhibition of […] measured after 1 hr relative to celecoxib; assay type: functional
Rattus norvegicus [27] = experiment: Analgesic activity in Carrageenan- induced paw edema in PO dosed Swiss albino rat assessed as protection of hind paw measured after 2 hrs at 20 mg/kg relative to control; assay type: functional
[28] = target: Prostaglandin G/H synthase 1 (Homo sapiens, UniProt P23219); experiment: Inhibition of COX-1 (unknown origin) at 40 uM relative to control
Prostaglandin G/H synthase 1, sequence (P23219 whole entry): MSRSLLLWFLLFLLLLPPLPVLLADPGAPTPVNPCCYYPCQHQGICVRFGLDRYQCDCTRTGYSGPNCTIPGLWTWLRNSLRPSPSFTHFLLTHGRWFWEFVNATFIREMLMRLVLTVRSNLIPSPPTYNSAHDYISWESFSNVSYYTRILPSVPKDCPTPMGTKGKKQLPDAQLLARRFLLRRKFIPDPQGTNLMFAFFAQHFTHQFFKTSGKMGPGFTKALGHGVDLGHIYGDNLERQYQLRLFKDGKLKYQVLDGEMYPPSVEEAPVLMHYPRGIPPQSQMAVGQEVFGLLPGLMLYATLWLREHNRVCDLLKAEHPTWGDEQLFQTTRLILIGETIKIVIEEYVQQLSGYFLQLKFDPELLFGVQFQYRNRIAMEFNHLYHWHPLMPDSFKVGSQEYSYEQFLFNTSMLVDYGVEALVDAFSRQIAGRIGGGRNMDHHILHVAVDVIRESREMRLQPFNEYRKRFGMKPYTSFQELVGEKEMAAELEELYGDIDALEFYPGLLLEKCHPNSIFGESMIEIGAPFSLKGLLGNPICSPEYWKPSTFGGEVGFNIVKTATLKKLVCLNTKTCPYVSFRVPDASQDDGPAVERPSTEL

[29] = target: T1, Prostaglandin G/H synthase 2 (Homo sapiens, UniProt P35354); experiment: Inhibition of COX-2 (unknown origin) assessed as inhibition at 10 uM
T1 sequence (P35354 whole entry): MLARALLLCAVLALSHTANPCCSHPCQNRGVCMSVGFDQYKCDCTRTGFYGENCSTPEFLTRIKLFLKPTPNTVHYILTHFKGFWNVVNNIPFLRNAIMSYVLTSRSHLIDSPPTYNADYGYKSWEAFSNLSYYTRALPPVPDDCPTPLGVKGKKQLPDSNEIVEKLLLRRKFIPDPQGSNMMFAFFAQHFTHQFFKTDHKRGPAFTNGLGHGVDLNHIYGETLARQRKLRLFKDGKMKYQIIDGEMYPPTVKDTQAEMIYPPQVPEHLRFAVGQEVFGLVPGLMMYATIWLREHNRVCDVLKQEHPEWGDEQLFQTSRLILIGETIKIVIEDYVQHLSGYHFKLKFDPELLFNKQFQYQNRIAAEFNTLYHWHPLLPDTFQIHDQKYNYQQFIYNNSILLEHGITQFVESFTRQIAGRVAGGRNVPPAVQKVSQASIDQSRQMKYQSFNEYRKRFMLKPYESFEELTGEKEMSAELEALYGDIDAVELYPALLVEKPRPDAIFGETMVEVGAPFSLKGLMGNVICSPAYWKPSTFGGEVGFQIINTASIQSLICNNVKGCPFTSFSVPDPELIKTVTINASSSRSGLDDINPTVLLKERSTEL

[30] = target: T1, Prostaglandin G/H synthase 2; experiment: Inhibition of COX-2 (unknown origin) at 10 uM
Mus musculus [31] = experiment: Anti-inflammatory activity in Carrageenan-induced paw edema mouse model assessed as inhibition of granuloma measured after 24 hrs relative to control; assay type: functional
Rattus norvegicus [32] = experiment: Anti-inflammatory activity against formalin-induced foot paw edema in Wistar rat at 5 mg/kg, po assessed as inhibition of edema measured after 4 hr relative to control; assay type: functional
RAW264.7 [33] = experiment: Anti-inflammatory activity in mouse RAW264.7 cells assessed as inhibition of LPS-induced TNFalpha production measured after 24 hrs by EIA method relative to control; assay type: functional; parameters: scale not given: the % may be the effect or the level left
Rattus norvegicus [34] = experiment: Anti-inflammatory activity in Carrageenan-induced-Wistar albino rat model assessed as reduction in volume of paw edema measured after 4 hrs; assay type: functional

Work on CN1CCN(C(=O)c2cnn(-c3ccccc3)c2)CC1 yielded an Activity (Mus musculus [1]) of 19%, an Activity (Mus musculus [2]) of 115.7 µL and an Activity (Mus musculus [3]) of 37%. For the same molecule, the Activity (Mus musculus [4]) was 88.6 µL, the Activity (Mus musculus [5]) was 34% and the Activity (Mus musculus [6]) was 85.7 µL. For the same molecule, the Activity (Mus musculus [7]) was 39%, the Activity (Mus musculus [8]) was 77.1 µL and the Activity (Mus musculus [9]) was 34.5%. It also gave an Activity (Mus musculus [10]) of 36.5%, an Activity (Mus musculus [11]) of 3.3 and an Activity (Mus musculus [12]) of 2.6.
COc1ccc(NC(=O)c2cc(-c3ccncc3)n[nH]2)cc1 showed an Activity [13] of 65%, an Activity [14] of 80% and an Activity [15] of 90%. The Activity [16] was 60%, the Activity [17] was 85% and the Activity [18] was 95%.
O=c1[nH]c(-c2ccccn2)nc2sc3c(c12)CCCC3 showed an Activity (RAW264.7 [19]) of 70%.
In the case of O=C(Nc1ccc(Cl)cc1)c1ccc(Nc2ncnc3c2cnn3-c2ccccc2)cc1, the Activity [20] is reported as 82.3%, the Activity [21] is reported as 74.9% and the IC50 [22] is reported as 1.63 µM. The Activity (Rattus norvegicus [23]) was 83.73% and the inhibition [24] was 62.3%.
For Nc1cc(-c2ccc(Cl)cc2)nn1C1=NC2C(C=NN2c2ccccc2)C(=O)N1c1ccccc1 (centres undefined), the inhibition in vivo at 10 mg/kg (Rattus norvegicus [25]) was 90% and the “fold change (FC)” value (Rattus norvegicus [26]) was 8.
CC1=NN(c2ccc(F)cc2)C(=O)/C1=N\Nc1ccc(-c2nc3ccccc3[nH]2)cc1 showed an Activity (Rattus norvegicus [27]) of 65%.
COc1ccc(/C=C2/SC(=S)C(Nc3nc4c(cnn4-c4ccccc4)c(=O)n3-c3ccccc3)C2=O)cc1OC (centres undefined) gave an IC50 [28] of 3.54 µM, an IC50 [29] of 0.37 µM and an IC50 [30] of 0.78 µM. The “inhibition (INH)” value (Mus musculus [31]) was 38.2% and the inhibition in vivo at 5 mg/kg (Rattus norvegicus [32]) was 57.4%.
COc1cc(OC)c2c(c1)OCC/C(=C\Cc1ccccn1)C2=O gave an Activity (RAW264.7 [33]) of 92.5%.
With Cc1nn(-c2ccccc2)c2c1C(c1ccccc1[N+](=O)[O-])C(C#N)=C(/N=C/c1ccccc1)O2 (centres undefined) the ED50 (Rattus norvegicus [34]) was 858 µmol/kg.
